From publication PMC6745035, “Novel tetrahydroacridine derivatives with iodobenzoic moieties induce G0/G1 cell cycle arrest and apoptosis in A549 non-small lung cancer and HT-29 colorectal cancer cells” (Molecular and Cellular Biochemistry, 2019)

Columns and labels:
A549 cells = assay: Cell cycle analysis (PI, flow cytometry), A549; assay type: cell-based, human; settings: A549, 24 h, compound at 1/2IC50 (1i 7.44 µM)
Protocol: Then, compounds were added into the wells and cells were further incubated for 24 h. After incubation, monolayer and supernatant cells were harvested and washed in PBS. Then, cells were centrifuged (monolayer—1200 rpm for 10 min, supernatant 3500 rpm for 10 min) and fixed in cold 70% ethanol. Pellets were kept at 4 °C for at least 2 h. Prior to analysis, cells were centrifuged and re-suspended in RNAsi (type 1-A; Sigma Aldrich)—PBS working solution (200 µg/mL). Samples were incubated at 37 °C for 10 min. At the end, 3 µL of 2 mg/mL propidium iodide (PI) (Sigma Aldrich) solution was added to each sample. Samples were kept in the dark prior to analysis. Analysis was performed on BD Accuri C6 Flow Cytometry (Becton–Dickinson). Etoposide (Calbiochem) was used as a reference drug. Experiments were done in triplicates.

HT-29 cells [1] = assay: Apoptosis assay by annexin-V/PI double staining, HT-29; assay type: cell-based, human; settings: HT-29, 24 h, compound at IC50 (1i 5.90 µM); control 8.62%
Protocol: Compounds were added to the cells and further incubated for 24 h. After treatment, monolayer and supernatant cells were harvested, washed with PBS and centrifuged (monolayer at 1200 rpm for 10 min, supernatant at 3500 rpm for 10 min). Then, cells were re-suspended in binding buffer and stained with 2 µL of Annexin-V and […] of PI (ANNEXIN-V—FITC Apoptosis Detection Kit, Immunostep) in the dark for 10 min at room temperature. Cells were analysed by BD Accuri C6 Flow Cytometry (Becton–Dickinson). Etoposide (Calbiochem) was used as a reference drug. Experiments were done in triplicates.

SH-SY5Y cells = assay: Cytoprotection against rotenone/oligomycin A, co-incubation, MTT; assay type: cell-based, human; settings: co-incubation with rotenone/oligomycin A, 0.001 µM
Protocol: In the co-incubation assay, compounds and mixture of R/O were incubated together for 24 h. […] It turned out that none of the compounds (apart from 1i at the concentration of 0.001 µM and cytoprotection of 2.99%) had cytoprotective properties in the whole range of concentrations (Fig. 17). Compounds were not able to capture free radicals; therefore they cannot be classified as free-radical scavengers.

[2] = system: 253J B-V and 253J B-V cisplatin-resistant cells
HT-29 cells [3] = assay: Colony forming assay, HT-29

SMILES | Cells in G2/M phase (A549 cells) [%] | Cells in S phase (A549 cells) [%] | Cells in G0/G1 phase (A549 cells; control 51.74%) [%] | Total apoptotic cells (HT-29 cells [1]) [%] | Cytoprotection (SH-SY5Y cells) [%] | Cytotoxic effect on cisplatin-resistant versus non-resistant 253J B-V cells (in words) [2] | Number of colonies expressed as percent of control number (HT-29 cells [3]; compound at 1/2IC50) [%] | Number of colonies expressed as percent of control number (HT-29 cells [3]; compound at 2xIC50) [%] | Number of colonies expressed as percent of control number (HT-29 cells [3]; compound at IC50) [%]
O=C(NCCCCNc1c2c(nc3ccccc13)CCCC2)c1ccc(I)cc1 [Compound 1i] | 11.31 | 12.76 | 75.93 | 11.80 | 2.99 |  |  |  | 
O=C(NCCCCNc1c2c(nc3ccccc13)CCCC2)c1ccccc1I [Compound 1c] |  |  |  | 12.96 |  | resistant cells were more sensitive | 10.06 | 0 | 4.38
O=C(NCCCNc1c2c(nc3ccccc13)CCCC2)c1ccccc1I [Compound 1b] |  |  |  |  |  | resistant cells were more sensitive |  |  | 
